Assay results: the OligoGym collection
HELM strings list units from the 5' end as sugar, base in round brackets, then linkage (d deoxyribose, r ribose, m 2'-O-methyl, p phosphodiester). Strings are as the collection lists them; they lack the last nucleoside at the 3' end of the tested compound. [moe] = 2'-O-(2-methoxyethyl) (MOE); [sp] = phosphorothioate linkage; [m5C] = 5-methylcytosine

Target: UBE3A-ATS
Test: mouse, dose not given
Settings: ASO

Substance | 3 h FOB score
RNA1{[moe](T)[sp].[moe](G)p.[moe](A)p.[moe](G)[sp].d([m5C])[sp].d(T)[sp].d(A)[sp].d(T)[sp].d([m5C])[sp].d(T)[sp].d(G)[sp].d(T)[sp].[moe](A)p.[moe]([m5C])p.[moe](A)p.[moe](A)[sp].[moe](A)}$$$$ (last 3' nucleoside missing) | 3 score 0-7
RNA1{[moe](T)[sp].[moe](A)p.[moe](G)p.[moe](T)p.[moe](T)p.d(T)[sp].d([m5C])[sp].d(A)[sp].d([m5C])[sp].d([m5C])[sp].d(G)[sp].d(A)[sp].d(A)[sp].d(A)[sp].d(G)[sp].[moe](T)p.[moe](A)p.[moe]([m5C])[sp].[moe](A)}$$$$ (last 3' nucleoside missing) | 2.5 score 0-7
RNA1{[moe](G)[sp].[moe](T)p.[moe](A)p.[moe](T)p.[moe](A)p.d(T)[sp].d(T)[sp].d(A)[sp].d(G)[sp].d(T)[sp].d([m5C])[sp].d(T)[sp].d(A)[sp].d(A)[sp].d(G)[sp].[moe](G)p.[moe]([m5C])p.[moe](A)[sp].[moe](G)}$$$$ (last 3' nucleoside missing) | 3.7 score 0-7
RNA1{[moe](T)[sp].[moe]([m5C])p.[moe](T)p.[moe](T)p.[moe](G)p.d([m5C])[sp].d(T)[sp].d(G)[sp].d(A)[sp].d(T)[sp].d([m5C])[sp].d(A)[sp].d([m5C])[sp].d(A)[sp].d(T)[sp].[moe](T)p.[moe](A)p.[moe]([m5C])[sp].[moe]([m5C])}$$$$ (last 3' nucleoside missing) | 0 score 0-7
RNA1{[moe](G)[sp].[moe](G)p.[moe](A)p.[moe](G)p.[moe](G)p.d(G)[sp].d(A)[sp].d(G)[sp].d(G)[sp].d(A)[sp].d(A)[sp].d(A)[sp].d(A)[sp].d(T)[sp].d(T)[sp].[moe](A)p.[moe](T)p.[moe](T)[sp].[moe](T)}$$$$ (last 3' nucleoside missing) | 0.5 score 0-7
RNA1{[moe](T)[sp].[moe]([m5C])p.[moe](A)p.[moe](G)p.[moe](T)p.[moe](T)[sp].d(A)[sp].d(G)[sp].d(G)[sp].d(T)[sp].d(T)[sp].d(A)[sp].d(G)[sp].d(T)[sp].[moe](G)p.[moe]([m5C])[sp].[moe](A)}$$$$ (last 3' nucleoside missing) | 3 score 0-7
RNA1{[moe](T)[sp].[moe](G)[sp].[moe]([m5C])[sp].[moe]([m5C])[sp].[moe](A)[sp].d(T)[sp].d([m5C])[sp].d(T)[sp].d(T)[sp].d([m5C])[sp].d(A)[sp].d(A)[sp].d(G)[sp].d(A)[sp].d([m5C])[sp].[moe](T)[sp].[moe](A)[sp].[moe](A)[sp].[moe](G)}$$$$ (last 3' nucleoside missing) | 6.8 score 0-7
RNA1{[moe](A)[sp].[moe](G)p.[moe](T)p.[moe](G)p.[moe](T)p.d([m5C])[sp].d(A)[sp].d(T)[sp].d(A)[sp].d(T)[sp].d(G)[sp].d(T)[sp].d(A)[sp].d(G)[sp].d([m5C])[sp].[moe](A)p.[moe](A)p.[moe](T)[sp].[moe](T)}$$$$ (last 3' nucleoside missing) | 4 score 0-7
RNA1{[moe]([m5C])[sp].[moe](A)p.[moe](G)p.[moe](A)p.[moe](T)p.d(T)[sp].d([m5C])[sp].d([m5C])[sp].d(T)[sp].d(A)[sp].d(A)[sp].d(A)[sp].d(T)[sp].d(A)[sp].d([m5C])[sp].[moe](G)p.[moe]([m5C])p.[moe](A)[sp].[moe]([m5C])}$$$$ (last 3' nucleoside missing) | 0 score 0-7
RNA1{[moe](G)[sp].[moe]([m5C])p.[moe](T)p.[moe](T)p.[moe](T)p.d(T)[sp].d([m5C])[sp].d(A)[sp].d(G)[sp].d(T)[sp].d([m5C])[sp].d(A)[sp].d(G)[sp].d(G)[sp].d(T)[sp].[moe](A)p.[moe]([m5C])p.[moe](A)[sp].[moe](G)}$$$$ (last 3' nucleoside missing) | 6 score 0-7
RNA1{[moe](G)[sp].[moe](T)p.[moe]([m5C])p.[moe](A)p.[moe](G)p.d(A)[sp].d([m5C])[sp].d(T)[sp].d(T)[sp].d(A)[sp].d(T)[sp].d(T)[sp].d(G)[sp].d(A)[sp].d(G)[sp].[moe](G)p.[moe](A)p.[moe](T)[sp].[moe](G)}$$$$ (last 3' nucleoside missing) | 4 score 0-7
RNA1{[moe](T)[sp].[moe](T)p.[moe](T)p.[moe](T)p.d(T)[sp].d([m5C])[sp].d([m5C])[sp].d(A)[sp].d(T)[sp].d(T)[sp].d(T)[sp].d(T)[sp].d(T)[sp].d([m5C])[sp].[moe](T)p.[moe]([m5C])p.[moe](T)p.[moe](T)[sp].[moe](A)}$$$$ (last 3' nucleoside missing) | 1 score 0-7
RNA1{[moe](G)[sp].[moe]([m5C])p.[moe](T)p.[moe](T)p.[moe](T)p.d(A)[sp].d(G)[sp].d(T)[sp].d(A)[sp].d(T)[sp].d(G)[sp].d(T)[sp].d([m5C])[sp].d(G)[sp].d(A)[sp].[moe](G)p.[moe](A)p.[moe](A)[sp].[moe]([m5C])}$$$$ (last 3' nucleoside missing) | 6 score 0-7
RNA1{[moe](T)[sp].[moe](G)p.[moe](T)p.[moe](G)p.[moe]([m5C])p.d(A)[sp].d(T)[sp].d(A)[sp].d([m5C])[sp].d([m5C])[sp].d([m5C])[sp].d(A)[sp].d(G)[sp].d(G)[sp].d(G)[sp].[moe](T)p.[moe](A)p.[moe](G)[sp].[moe](G)}$$$$ (last 3' nucleoside missing) | 3 score 0-7
RNA1{[moe](A)[sp].[moe](G)p.[moe](G)p.[moe](A)p.[moe](T)p.d(T)[sp].d([m5C])[sp].d(A)[sp].d(A)[sp].d(T)[sp].d(A)[sp].d(G)[sp].d(T)[sp].d(G)[sp].d(T)[sp].[moe](A)p.[moe](G)p.[moe](G)[sp].[moe](T)}$$$$ (last 3' nucleoside missing) | 6.7 score 0-7
RNA1{[moe](T)[sp].[moe]([m5C])p.[moe](A)p.[moe](T)p.[moe]([m5C])[sp].d(T)[sp].d([m5C])[sp].d(G)[sp].d(G)[sp].d(G)[sp].d(T)[sp].d(A)[sp].d(T)[sp].[moe](A)p.[moe](T)p.[moe](A)[sp].[moe](A)}$$$$ (last 3' nucleoside missing) | 3 score 0-7
RNA1{[moe]([m5C])[sp].[moe](G)p.[moe](T)p.[moe](G)p.d(A)[sp].d(G)[sp].d([m5C])[sp].d(T)[sp].d(A)[sp].d(T)[sp].d([m5C])[sp].d(T)[sp].d(G)[sp].d(T)[sp].[moe](A)p.[moe]([m5C])p.[moe](A)p.[moe](A)[sp].[moe](A)}$$$$ (last 3' nucleoside missing) | 4 score 0-7
RNA1{[moe]([m5C])[sp].[moe]([m5C])p.[moe](A)p.[moe](A)p.[moe]([m5C])p.d(T)[sp].d(T)[sp].d([m5C])[sp].d(A)[sp].d(T)[sp].d([m5C])[sp].d(A)[sp].d(A)[sp].d(T)[sp].d(A)[sp].[moe](T)p.[moe](T)p.[moe](T)[sp].[moe]([m5C])}$$$$ (last 3' nucleoside missing) | 0 score 0-7
RNA1{[moe]([m5C])[sp].[moe]([m5C])p.[moe](A)p.[moe](G)p.[moe](T)p.d(T)[sp].d(T)[sp].d(T)[sp].d([m5C])[sp].d(G)[sp].d([m5C])[sp].d([m5C])[sp].d([m5C])[sp].d(G)[sp].d(T)[sp].[moe](T)p.[moe](A)p.[moe]([m5C])[sp].[moe]([m5C])}$$$$ (last 3' nucleoside missing) | 4.5 score 0-7
RNA1{[moe](T)[sp].[moe](G)p.[moe](T)p.[moe](G)p.[moe]([m5C])p.[moe](A)p.d(T)[sp].d(A)[sp].d([m5C])[sp].d([m5C])[sp].d([m5C])[sp].d(A)[sp].d(G)[sp].d(G)[sp].d(G)[sp].d(T)[sp].[moe](A)p.[moe](G)[sp].[moe](G)}$$$$ (last 3' nucleoside missing) | 0 score 0-7
RNA1{[moe](G)[sp].[moe](G)p.[moe](A)p.[moe](T)p.[moe](G)p.d(G)[sp].d(T)[sp].d(T)[sp].d(G)[sp].d(A)[sp].d([m5C])[sp].d([m5C])[sp].d(T)[sp].d([m5C])[sp].d(A)[sp].[moe](A)p.[moe](A)p.[moe](A)[sp].[moe](T)}$$$$ (last 3' nucleoside missing) | 3.8 score 0-7
RNA1{[moe]([m5C])[sp].[moe](G)p.[moe](T)p.[moe](T)p.[moe](A)p.d(T)[sp].d(T)[sp].d([m5C])[sp].d(A)[sp].d(G)[sp].d(T)[sp].d([m5C])[sp].d(T)[sp].d([m5C])[sp].d(A)[sp].[moe](G)p.[moe](G)p.[moe](G)[sp].[moe](A)}$$$$ (last 3' nucleoside missing) | 4.5 score 0-7
RNA1{[moe](A)[sp].[moe](T)p.[moe](G)p.[moe](A)p.[moe](T)p.d([m5C])[sp].d(A)[sp].d(T)[sp].d(A)[sp].d([m5C])[sp].d(T)[sp].d(G)[sp].d(G)[sp].d(A)[sp].d(G)[sp].[moe]([m5C])p.[moe]([m5C])p.[moe](A)[sp].[moe](G)}$$$$ (last 3' nucleoside missing) | 5.8 score 0-7
RNA1{[moe](A)[sp].[moe](G)p.[moe]([m5C])p.[moe]([m5C])p.[moe](A)p.[moe](G)[sp].d(G)[sp].d(T)[sp].d(G)[sp].d(T)[sp].d([m5C])[sp].d(T)[sp].d(T)[sp].d(A)[sp].[moe](T)p.[moe](A)[sp].[moe](T)}$$$$ (last 3' nucleoside missing) | 0 score 0-7
RNA1{[moe](T)[sp].[moe](A)p.[moe](T)p.[moe](A)p.[moe](G)p.d(G)[sp].d(G)[sp].d(T)[sp].d(G)[sp].d(G)[sp].d(T)[sp].d(T)[sp].d(G)[sp].d(G)[sp].d(T)[sp].[moe](T)p.[moe]([m5C])p.[moe](A)[sp].[moe](A)}$$$$ (last 3' nucleoside missing) | 6 score 0-7
RNA1{[moe](T)[sp].[moe](G)p.[moe]([m5C])p.[moe](T)p.d(G)[sp].d(A)[sp].d(T)[sp].d([m5C])[sp].d(A)[sp].d([m5C])[sp].d(A)[sp].d(T)[sp].d(T)[sp].d(A)[sp].[moe]([m5C])p.[moe]([m5C])p.[moe]([m5C])p.[moe](A)[sp].[moe](T)}$$$$ (last 3' nucleoside missing) | 0 score 0-7
RNA1{[moe]([m5C])[sp].[moe](A)p.[moe](T)p.[moe](A)p.[moe]([m5C])[sp].d([m5C])[sp].d([m5C])[sp].d(A)[sp].d(G)[sp].d(G)[sp].d(G)[sp].d(T)[sp].d(A)[sp].[moe](G)p.[moe](G)p.[moe](A)[sp].[moe](T)}$$$$ (last 3' nucleoside missing) | 1 score 0-7
